Source: patent publication US12195482B1 (Arcus Biosciences, Inc., priority 2022, dated 2025)

Key:
[1] = biological target: T1, recombinant human MER (Homo sapiens, UniProt Q12866); test: Biochemical potency, HTRF KinEASE-TK kinase assay; details: 1 nM MER, 700 μM ATP
T1 construct: purchased Invitrogen
T1 sequence (Q12866 21-999): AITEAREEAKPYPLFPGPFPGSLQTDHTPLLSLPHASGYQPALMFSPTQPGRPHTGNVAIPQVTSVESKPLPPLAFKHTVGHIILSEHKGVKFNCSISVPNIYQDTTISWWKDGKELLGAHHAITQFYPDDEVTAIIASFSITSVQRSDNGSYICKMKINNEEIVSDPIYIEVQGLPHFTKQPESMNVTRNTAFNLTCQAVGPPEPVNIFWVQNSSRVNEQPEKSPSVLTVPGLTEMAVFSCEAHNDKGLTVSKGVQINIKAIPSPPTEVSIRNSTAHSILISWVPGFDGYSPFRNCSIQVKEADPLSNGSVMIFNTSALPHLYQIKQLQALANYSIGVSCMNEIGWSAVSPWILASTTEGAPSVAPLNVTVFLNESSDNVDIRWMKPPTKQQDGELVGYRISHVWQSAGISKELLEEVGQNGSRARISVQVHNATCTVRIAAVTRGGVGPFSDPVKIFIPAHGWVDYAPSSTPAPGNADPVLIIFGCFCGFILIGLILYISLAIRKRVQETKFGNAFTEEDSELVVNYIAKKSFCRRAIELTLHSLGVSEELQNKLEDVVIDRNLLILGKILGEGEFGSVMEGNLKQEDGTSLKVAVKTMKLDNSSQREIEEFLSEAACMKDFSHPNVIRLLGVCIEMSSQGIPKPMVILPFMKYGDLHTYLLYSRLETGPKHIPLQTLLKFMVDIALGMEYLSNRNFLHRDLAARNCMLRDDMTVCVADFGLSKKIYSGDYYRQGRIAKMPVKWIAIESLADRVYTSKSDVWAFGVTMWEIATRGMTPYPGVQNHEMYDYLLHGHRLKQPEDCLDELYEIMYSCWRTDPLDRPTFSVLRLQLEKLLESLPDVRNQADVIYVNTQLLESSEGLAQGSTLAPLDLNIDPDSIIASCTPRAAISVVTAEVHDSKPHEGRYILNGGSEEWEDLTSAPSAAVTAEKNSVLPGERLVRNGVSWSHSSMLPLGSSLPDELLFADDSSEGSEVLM
Outline: (§1)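 Steps: compound plus kinase, 1 h RT; add ATP (700 µM final) and biotin-TK substrate (800 nM final); run 2 h RT; stop into streptavidin-XL665/anti-phospho cryptate detection mix, 1 h; read 665/620. AXL at 5 nM, TYRO3 and MER at 1 nM.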

[2] = biological target: T2, recombinant human TYRO3 (Homo sapiens, UniProt Q06418); test: Biochemical potency, HTRF KinEASE-TK kinase assay; details: 1 nM TYRO3, 700 μM ATP
T2 construct: purchased Invitrogen
T2 sequence (Q06418 41-890): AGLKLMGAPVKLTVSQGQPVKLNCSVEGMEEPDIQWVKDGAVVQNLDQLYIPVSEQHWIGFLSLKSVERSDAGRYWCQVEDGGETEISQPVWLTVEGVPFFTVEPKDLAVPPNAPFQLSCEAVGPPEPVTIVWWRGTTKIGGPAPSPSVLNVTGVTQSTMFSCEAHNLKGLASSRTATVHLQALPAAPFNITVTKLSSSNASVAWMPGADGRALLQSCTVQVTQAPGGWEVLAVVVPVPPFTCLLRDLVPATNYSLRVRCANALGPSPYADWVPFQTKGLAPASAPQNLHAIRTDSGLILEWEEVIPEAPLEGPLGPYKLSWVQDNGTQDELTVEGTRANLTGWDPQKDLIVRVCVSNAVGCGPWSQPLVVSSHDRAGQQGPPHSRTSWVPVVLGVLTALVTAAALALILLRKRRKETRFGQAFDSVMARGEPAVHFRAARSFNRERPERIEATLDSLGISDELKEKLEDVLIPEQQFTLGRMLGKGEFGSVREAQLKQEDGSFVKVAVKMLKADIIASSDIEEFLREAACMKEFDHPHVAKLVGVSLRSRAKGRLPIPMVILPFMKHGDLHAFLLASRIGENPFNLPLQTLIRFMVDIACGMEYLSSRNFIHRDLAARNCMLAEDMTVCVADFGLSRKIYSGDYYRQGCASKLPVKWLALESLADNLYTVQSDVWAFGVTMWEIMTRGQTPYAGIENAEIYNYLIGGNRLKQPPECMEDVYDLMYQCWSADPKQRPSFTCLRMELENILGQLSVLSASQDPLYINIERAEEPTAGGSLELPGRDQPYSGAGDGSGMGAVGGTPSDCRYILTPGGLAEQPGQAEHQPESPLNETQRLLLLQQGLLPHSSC
Outline: as §1

Row | IC50 [1] | IC50 [2] | Structure (SMILES)
1 | 100 to 1000 nM | < 100 nM | COc1cccnc1-c1ccc(-c2c[nH]c3ncc(-c4ccc5c(c4)CC[C@@H](N4C6COCC4C6)CC5)cc23)cc1 [Example 164, 6-[(7S)-2-{3-[4-(3-Methoxypyridin-2-yl)phenyl]-1H-pyrrolo[2,3-b]pyridin-5-yl}-6,7,8,9-tetrahydro-5H-benzo[7]annulen-7-yl]-3-oxa-6-azabicyclo[3.1.1]heptane]
2 | > 1000 nM | > 1000 nM | O=c1ccccn1-c1ccc(-c2n[nH]c3ncc(-c4ccc5c(c4)CC[C@@H](N4C6COCC4C6)CC5)cc23)cc1 [Example 31, 1-[4-[5-[(7S)-7-(3-Oxa-6-azabicyclo[3.1.1]heptan-6-yl)-6,7,8,9-tetrahydro-5H-benzo[7]annulen-3-yl]-1H-pyrazolo[3,4-b]pyridin-3-yl]phenyl]pyridin-2-one]
3 | < 100 nM | < 100 nM | Cc1cncnc1-c1ccc(-c2n[nH]c3ncc(-c4ccc5c(c4)CC[C@@H](N4C6COCC4C6)CC5)cc23)cc1 [Example 174, 6-[(7S)-2-{3-[4-(5-Methylpyrimidin-4-yl)phenyl]-1H-pyrazolo[3,4-b]pyridin-5-yl}-6,7,8,9-tetrahydro-5H-benzo[7]annulen-7-yl]-3-oxa-6-azabicyclo[3.1.1]heptane]
4 | < 100 nM | < 100 nM | Cc1cnc(-c2ccc(-c3n[nH]c4ncc(-c5ccc6c(c5)CC[C@@H](N5C7COCC5C7)CC6)cc34)cc2)c(C)c1 [Example 119, 6-[(7S)-2-{3-[4-(3,5-Dimethylpyridin-2-yl)phenyl]-1H-pyrazolo[3,4-b]pyridin-5-yl}-6,7,8,9-tetrahydro-5H-benzo[7]annulen-7-yl]-3-oxa-6-azabicyclo[3.1.1]heptane]
5 | < 100 nM | < 100 nM | Cc1ncc(C)c(-c2ccc(-c3c[nH]c4ncc(-c5ccc6c(c5)CC[C@@H](N5C7COCC5C7)CC6)cc34)cc2)n1 [Example 123, 6-[(7S)-2-{3-[4-(2,5-Dimethylpyrimidin-4-yl)phenyl]-1H-pyrrolo[2,3-b]pyridin-5-yl}-6,7,8,9-tetrahydro-5H-benzo[7]annulen-7-yl]-3-oxa-6-azabicyclo[3.1.1]heptane]
6 | < 100 nM | < 100 nM | Cc1cccnc1-c1ccc(-c2c[nH]c3ncc(-c4ccc5c(c4)CC[C@@H](N[C@H]4CCCOC4)CC5)cc23)cc1 [Example 186, (3S)—N-[(7S)-2-{3-[4-(3-Methylpyridin-2-yl)phenyl]-1H-pyrrolo[2,3-b]pyridin-5-yl}-6,7,8,9-tetrahydro-5H-benzo[7]annulen-7-yl]oxan-3-amine]
7 | 100 to 1000 nM | 100 to 1000 nM | Cc1cccc(-c2ccc(-c3n[nH]c4ncc(-c5ccc6c(c5)CC[C@@H](N5C7COCC5C7)CC6)cc34)cc2)n1 [Example 116, 6-[(7S)-2-{3-[4-(6-Methylpyridin-2-yl)phenyl]-1H-pyrazolo[3,4-b]pyridin-5-yl}-6,7,8,9-tetrahydro-5H-benzo[7]annulen-7-yl]-3-oxa-6-azabicyclo[3.1.1]heptane]
8 | 100 to 1000 nM | 100 to 1000 nM | c1ccc(-c2ccc(-c3n[nH]c4ncc(-c5ccc6c(c5)CC[C@@H](N5C7COCC5C7)CC6)cc34)cc2)nc1 [Example 154, 6-[(7S)-2-{3-[4-(Pyridin-2-yl)phenyl]-2H-pyrazolo[3,4-b]pyridin-5-yl}-6,7,8,9-tetrahydro-5H-benzo[7]annulen-7-yl]-3-oxa-6-azabicyclo[3.1.1]heptane]
9 | > 1000 nM | 100 to 1000 nM | c1ccc(-c2ccc(-c3c[nH]c4ncc(-c5ccc6c(c5)CC[C@@H](N5C7COCC5C7)CC6)cc34)cc2)nc1 [Example 155, 6-[(7S)-2-{3-[4-(Pyridin-2-yl)phenyl]-1H-pyrrolo[2,3-b]pyridin-5-yl}-6,7,8,9-tetrahydro-5H-benzo[7]annulen-7-yl]-3-oxa-6-azabicyclo[3.1.1]heptane]
10 | 100 to 1000 nM | < 100 nM | CN(C(=O)C1CC1)c1cccnc1-c1ccc(-c2n[nH]c3ncc(-c4ccc5c(c4)CC[C@@H](N4C6COCC4C6)CC5)cc23)cc1 [Example 128, N-Methyl-N-[2-(4-{5-[(7S)-7-{3-oxa-6-azabicyclo[3.1.1]heptan-6-yl}-6,7,8,9-tetrahydro-5H-benzo[7]annulen-2-yl]-1H-pyrazolo[3,4-b]pyridin-3-yl}phenyl)pyridin-3-yl]cyclopropanecarboxamide]
11 | 100 to 1000 nM | < 100 nM | Cc1cccnc1-c1ccc(-c2c[nH]c3ncc(-c4ccc5c(c4)CC[C@@H](N4C[C@@H]6C[C@H]4CO6)CC5)cc23)cc1 [Example 187, (4S)-5-[(7S)-2-{3-[4-(3-Methylpyridin-2-yl)phenyl]-1H-pyrrolo[2,3-b]pyridin-5-yl}-6,7,8,9-tetrahydro-5H-benzo[7]annulen-7-yl]-2-oxa-5-azabicyclo[2.2.1]heptane]
12 | 100 to 1000 nM | < 100 nM | CS(=O)(=O)c1cccnc1-c1ccc(-c2n[nH]c3ncc(-c4ccc5c(c4)CC[C@@H](N4C6COCC4C6)CC5)cc23)cc1 [Example 101, 6-[(7S)-2-{3-[4-(3-Methanesulfonylpyridin-2-yl)phenyl]-1H-pyrazolo[3,4-b]pyridin-5-yl}-6,7,8,9-tetrahydro-5H-benzo[7]annulen-7-yl]-3-oxa-6-azabicyclo[3.1.1]heptane]
13 | 100 to 1000 nM | 100 to 1000 nM | CN(C)C(=O)c1ccccc1-c1ccc(-c2n[nH]c3ncc(-c4ccc5c(c4)CC[C@@H](N4C6COCC4C6)CC5)cc23)cc1 [Example 12, N,N-Dimethyl-4′-{5-[(7S)-7-{3-oxa-6-azabicyclo[3.1.1]heptan-6-yl}-6,7,8,9-tetrahydro-5H-benzo[7]annulen-2-yl]-2H-pyrazolo[3,4-b]pyridin-3-yl}-[1,1′-biphenyl]-2-carboxamide]
14 | > 1000 nM | 100 to 1000 nM | Cc1ccnc(-c2ccc(-c3n[nH]c4ncc(-c5ccc6c(c5)CC[C@@H](N5C7COCC5C7)CC6)cc34)cc2)c1 [Example 117, 6-[(7S)-2-{3-[4-(4-Methylpyridin-2-yl)phenyl]-1H-pyrazolo[3,4-b]pyridin-5-yl}-6,7,8,9-tetrahydro-5H-benzo[7]annulen-7-yl]-3-oxa-6-azabicyclo[3.1.1]heptane]
15 | 100 to 1000 nM | 100 to 1000 nM | O=C1CCCN1c1cccnc1-c1ccc(-c2n[nH]c3ncc(-c4ccc5c(c4)CC[C@@H](N4C6COCC4C6)CC5)cc23)cc1 [Example 177, 1-[2-(4-{5-[(7S)-7-{3-Oxa-6-azabicyclo[3.1.1]heptan-6-yl}-6,7,8,9-tetrahydro-5H-benzo[7]annulen-2-yl]-1H-pyrazolo[3,4-b]pyridin-3-yl}phenyl)pyridin-3-yl]pyrrolidin-2-one]
16 | 100 to 1000 nM | 100 to 1000 nM | Cc1cc(-c2n[nH]c3ncc(-c4ccc5c(c4)CC[C@@H](N4C6COCC4C6)CC5)cc23)ccc1-c1ccccn1 [Example 159, 6-[(7S)-2-{3-[3-Methyl-4-(pyridin-2-yl)phenyl]-2H-pyrazolo[3,4-b]pyridin-5-yl}-6,7,8,9-tetrahydro-5H-benzo[7]annulen-7-yl]-3-oxa-6-azabicyclo[3.1.1]heptane]
